# Source: patent US20120035187A1 (priority 2009, published 2012)
# Tests used:
# [1] = test system: ICR mice administered with amyloid β fragment; assay: Novel object recognition test, mouse administered with amyloid β fragment, agents of Example 1; type: in vivo; parameters: key: (novel − memorized seeking time)/(novel + memorized seeking time); settings: agent of Example 1, 0.3 ml/head intraperitoneally once a day up to the 8th day
# Description: One hundred and thirty ICR mice (commercialized by Charles Liver Laboratories Japan Inc., Kanagawa, Japan) were randomly divided into 13 groups, consisting of 10 mice in each group. Amyloid β fragment, represented by an amino acid sequence of SEQ ID NO: 1, used in Experiment 3 was aged at 37° C. for four days, and administered to the lateral ventricle of each mouse in an amount of 9 nmol/6 μl/mouse (the administration method is referred to “Brain Research”, Vol. 706, pp. 181-193 (1996)). […] The mice (10 heads) in the remaining one group were intraperitoneally administered with a sterilized 10% maltose solution (pyrogen-free) once a day up to the 8th day in an amount of 0.3 ml/mouse (control). On the 8th day after the administration, novel object recognition test (see, Japanese Patent Kokai No. 2008-193941) was performed and the average discrimination index (the ratio of prolonged seeking time for novel object to the total seeking time) as a cognitive function index were shown in Table 26. On the 9th day after the administration, the brain of the mice was anatomically isolated, prepared into tissue samples in conventional manner. Depositions of aggregation of amyloid fragment were observed by staining with Congo red or thioflavin T, and degeneration or defect of hippocampal pyramidal cells concerned with cognitive function. The degeneration or the defect of hippocampal pyramidal cells was evaluated by 4-point grade score, by regarding the condition of the control without administration of amyloid β fragment as “none (O)”, “slight (1)”, “moderate (2)”, and “sever (3)”, and the average scores of 10 mice are shown in Table 20.
# An experiment apparatus (a glass box of 30 cm in depth, 45 cm in width, and 30 cm in height) and two kinds of objects to be memorized by mice were provided. On the day before the test, the mice were allowed to seek freely in the experiment apparatus with no seeking object for 10 minutes for acclimation. On the test day, the following test was performed twice at an interval of 60 minutes. In the first trial, the same two objects were placed in the apparatus at its both ends, and the mouse was allowed to seek freely for 10 minutes. On the second trial, one of the objects used in the first test was replaced with a different kind of object, and then the mouse was allowed to seek freely for five minutes. In each experiment, when the mouse brought its muffle close to the object within 1-cm apart from the object, or made its muffle or whiskers to contact with the object, the mouse was judged to have a seeking behavior, and the seeking time thereof was measured. The object discrimination index [={(seeking time for novel object)−(seeking time for memorized object)}/{(seeking time of novel object)+(seeking time of memorized object)}] was calculated. The object discrimination index means the ratio of an increased seeking time for novel object to the total seeking time, and the ratio becomes larger when the memory of the once sought object was more strongly held, and it becomes smaller when the memory was more weakly held.
# PC12-HS cells = assay: Evaluation B: neurite-outgrowth action in presence of NGF; type: cell-based, rat
# [2] = test system: hamsters with cerebellar ataxia; assay: Rotarod test in hamsters with cerebellar ataxia; type: in vivo, hamster; settings: for Time of falling from rotarod: hamster with cerebellar ataxia, agent of Example 1, 0.5 ml/hamster intraperitoneally once a day for 56 days
# Description: Since NK-4 was confirmed to have a neurodegenerative inhibitory action in Experiment 1, hamsters with cerebellar ataxia (cerebellar ataxia is called “cerebellar A” and hamsters with cerebellar ataxia are called “hamsters with cerebellar A”, hereinafter) as a suitable model for human neurodegenerative diseases (e.g., spinal cerebellar degeneration) were subjected to examine the influence of NK-4 administration on their behaviors and brain tissues. Twenty-five hamsters with natural mutation (Nna1 inhibition), which are known to lose Purkinje's cells after three-weeks of age and then induce a spontaneous onset of kinetic motor ataxia after seven-weeks of age (see Akita K. et al., “J. Neurogenetics”, Vol. 21, pp. 19-29, 2007), had been fed at Hayashibara Biochemical Laboratories., Inc., Okayama, Japan, were randomly allocated to the test groups 1 to 5, five heads in each group, as shown in Table 2. Prior to the onset of cerebellar A (at three-weeks of age), PBS was started to administer to the hamsters in the test group 1 at a dose of 10 ml/kg/day. Prior to the onset of cerebellar A (at three-weeks of age), NK-4 was started to be administered to the hamsters in the test groups 2 to 4 at a daily dose of 20 μg/kg, 100 μg/kg or 500 μg/kg. “IGF-1, human, a product name of insulin-like growth factor, commercialized by Assaypro LLC, MO, USA. These administered ingredients were intraperitoneally administered daily to hamsters once a day up to 10-weeks of age. The degree of symptom of cerebellar A and the improvement effect on the symptom by NK-4 were evaluated with an index of improvement in motor coordination of hamsters by conducting once a week the later described rotarod test and the slant tolerance test. At the age of 10-weeks, the hamsters were subjected to counting the falling down frequency and extracted their brains, which were then histologically evaluated. In parallel, the concentration of glutamic acid in the bloods and cerebrospinal fluids (CSF) of the hamsters was assayed. As a test group 6, five normal hamsters, with the same age as the hamsters with cerebellar A used in the test groups 1 to 5, were provided and tested similarly as the hamsters with cerebellar A in such a manner of intraperitoneally administering PBS to them at a dose of 10 ml/kg/day once a day up to 10-weeks of age.
# As an index for coordinated movement, it was used a duration time of hamster's movement to staying on a rotarod by locomotion in synchronization with the turn of the rotarod; placing a hamster on an apparatus with a rotarod (having a diameter of 60 mm, prepared by Hayashibara Biochemical Laboratories, Inc., Okayama, Japan), turning at a constant rate of six rpm, and measuring the time until the hamster falls down from the rotarod (see Fernandez et al., “Proc. Natl. Acad. Sci. USA”, Vol. 95, pp. 1253-1258, 1998). The test was repeated six times for each hamster, where five-times of tests starting from the initiation of the test were made as a preliminary examination, and the time until each hamster fell down from the rotarod (called “falling time”, hereinafter) was measured, followed by averaging the falling times for each group consisting of five heads. The falling time was measured until 180 seconds. Based on the results, the relationship between the age and the falling time for each hamster with cerebellar A (test group 1) administered with PBS was graphed. […]
# Similarly as in Experiment 2, 130 hamsters with cerebellar ataxia, born within the same week and 3-weeks of age, were randomly divided into 13 groups, consisting of 10 hamsters, respectively. […]
# [3] = compound concentration 80 ng/ml
# [4] = compound concentration 400 ng/ml
# [5] = compound concentration 2000 ng/ml
# [6] = compound concentration 10000 ng/ml
smiles,measurement,setting,value
CCN1C=CC(=CC=C(C=Cc2cc[n+](CC)c3ccccc23)c2cc[n+](CC)c3ccccc23)c2ccccc21.[I-].[I-] [NK-4],Object discrimination index,[1],0.1
same,Evaluation B: Neurite-outgrowth action,"PC12-HS cells; 50 μl of 400 ng/ml test sample solution per well + NGF final 5 ng/ml, 3 days",∘ (The test sample with a neurite outgrowth rate of 30% or higher was judged to be equivalent or more (∘) compared with NK-4)
same,Action on neurite outgrowth (%),PC12-HS cells; [3],25 ± 9%
same,Action on neurite outgrowth (%),PC12-HS cells; [4],35 ± 9%
same,Action on neurite outgrowth (%),PC12-HS cells; [5],52 ± 4%
same,Action on neurite outgrowth (%),PC12-HS cells; [6],14 ± 6%
same,Rate of cells exhibiting neurite outgrowth (%),PC12-HS cells; final concentration of compound 200 ng/ml,22 ± 8%
same,Rate of cells exhibiting neurite outgrowth (%),PC12-HS cells; final concentration of compound 400 ng/ml,31 ± 14%
same,Rate of cells exhibiting neurite outgrowth (%),PC12-HS cells; final concentration of compound 800 ng/ml,51 ± 3%
same,Rate of cells exhibiting neurite outgrowth (%),PC12-HS cells; final concentration of compound 1600 ng/ml,49 ± 8%
same,Delayed days until the onset of cerebellar ataxia in hamster,"[2]; 20 μg/kg body weight, 6-Weeks",11 days
same,Delayed days until the onset of cerebellar ataxia in hamster,"[2]; 20 μg/kg body weight, 7-Weeks",17 days
same,Delayed days until the onset of cerebellar ataxia in hamster,"[2]; 20 μg/kg body weight, 8-Weeks",17 days
same,Delayed days until the onset of cerebellar ataxia in hamster,"[2]; 20 μg/kg body weight, 9-Weeks",27 days
same,Delayed days until the onset of cerebellar ataxia in hamster,"[2]; 20 μg/kg body weight, 10-Weeks",32 days
same,Delayed days until the onset of cerebellar ataxia in hamster,"[2]; 100 μg/kg body weight, 5-Weeks",7 days
same,Delayed days until the onset of cerebellar ataxia in hamster,"[2]; 100 μg/kg body weight, 6-Weeks",14 days
same,Delayed days until the onset of cerebellar ataxia in hamster,"[2]; 100 μg/kg body weight, 7-Weeks",21 days
same,Delayed days until the onset of cerebellar ataxia in hamster,"[2]; 100 μg/kg body weight, 8-Weeks",21 days
same,Delayed days until the onset of cerebellar ataxia in hamster,"[2]; 100 μg/kg body weight, 9-Weeks",29 days
same,Delayed days until the onset of cerebellar ataxia in hamster,"[2]; 100 μg/kg body weight, 10-Weeks",36 days
same,Delayed days until the onset of cerebellar ataxia in hamster,"[2]; 500 μg/kg body weight, 5-Weeks",6 days
same,Delayed days until the onset of cerebellar ataxia in hamster,"[2]; 500 μg/kg body weight, 6-Weeks",14 days
same,Delayed days until the onset of cerebellar ataxia in hamster,"[2]; 500 μg/kg body weight, 7-Weeks",21 days
same,Delayed days until the onset of cerebellar ataxia in hamster,"[2]; 500 μg/kg body weight, 8-Weeks",21 days
same,Delayed days until the onset of cerebellar ataxia in hamster,"[2]; 500 μg/kg body weight, 9-Weeks",28 days
same,Delayed days until the onset of cerebellar ataxia in hamster,"[2]; 500 μg/kg body weight, 10-Weeks",35 days
same,time (sec) endured until falling from rotarod apparatus,"[2]; cerebellar ataxia hamsters, 20 μg/kg body weight i.p. once a day from 3-weeks of age, 4-Weeks",152 ± 4 s
same,time (sec) endured until falling from rotarod apparatus,"[2]; cerebellar ataxia hamsters, 20 μg/kg body weight i.p. once a day, 5-Weeks",53 ± 5 s
same,time (sec) endured until falling from rotarod apparatus,"[2]; cerebellar ataxia hamsters, 20 μg/kg body weight i.p. once a day, 6-Weeks",89 ± 9 s
same,time (sec) endured until falling from rotarod apparatus,"[2]; cerebellar ataxia hamsters, 20 μg/kg body weight i.p. once a day, 7-Weeks",74 ± 10 s
same,time (sec) endured until falling from rotarod apparatus,"[2]; cerebellar ataxia hamsters, 20 μg/kg body weight i.p. once a day, 8-Weeks",36 ± 2 s
same,time (sec) endured until falling from rotarod apparatus,"[2]; cerebellar ataxia hamsters, 20 μg/kg body weight i.p. once a day, 9-Weeks",48 ± 3 s
same,time (sec) endured until falling from rotarod apparatus,"[2]; cerebellar ataxia hamsters, 20 μg/kg body weight i.p. once a day, 10-Weeks",40 ± 4 s
same,time (sec) endured until falling from rotarod apparatus,"[2]; cerebellar ataxia hamsters, 100 μg/kg body weight i.p. once a day, 4-Weeks",136 ± 5 s
same,time (sec) endured until falling from rotarod apparatus,"[2]; cerebellar ataxia hamsters, 100 μg/kg body weight i.p. once a day, 5-Weeks",145 ± 8 s
same,time (sec) endured until falling from rotarod apparatus,"[2]; cerebellar ataxia hamsters, 100 μg/kg body weight i.p. once a day, 6-Weeks",139 ± 10 s
same,time (sec) endured until falling from rotarod apparatus,"[2]; cerebellar ataxia hamsters, 100 μg/kg body weight i.p. once a day, 7-Weeks",122 ± 7 s
same,time (sec) endured until falling from rotarod apparatus,"[2]; cerebellar ataxia hamsters, 100 μg/kg body weight i.p. once a day, 8-Weeks",79 ± 12 s
same,time (sec) endured until falling from rotarod apparatus,"[2]; cerebellar ataxia hamsters, 100 μg/kg body weight i.p. once a day, 9-Weeks",66 ± 6 s
same,time (sec) endured until falling from rotarod apparatus,"[2]; cerebellar ataxia hamsters, 100 μg/kg body weight i.p. once a day, 10-Weeks",66 ± 6 s
same,time (sec) endured until falling from rotarod apparatus,"[2]; cerebellar ataxia hamsters, 500 μg/kg body weight i.p. once a day, 4-Weeks",156 ± 5 s
same,time (sec) endured until falling from rotarod apparatus,"[2]; cerebellar ataxia hamsters, 500 μg/kg body weight i.p. once a day, 5-Weeks",95 ± 8 s
same,time (sec) endured until falling from rotarod apparatus,"[2]; cerebellar ataxia hamsters, 500 μg/kg body weight i.p. once a day, 6-Weeks",119 ± 4 s
same,time (sec) endured until falling from rotarod apparatus,"[2]; cerebellar ataxia hamsters, 500 μg/kg body weight i.p. once a day, 7-Weeks",145 ± 7 s
same,time (sec) endured until falling from rotarod apparatus,"[2]; cerebellar ataxia hamsters, 500 μg/kg body weight i.p. once a day, 8-Weeks",85 ± 8 s
same,time (sec) endured until falling from rotarod apparatus,"[2]; cerebellar ataxia hamsters, 500 μg/kg body weight i.p. once a day, 9-Weeks",60 ± 7 s
same,time (sec) endured until falling from rotarod apparatus,"[2]; cerebellar ataxia hamsters, 500 μg/kg body weight i.p. once a day, 10-Weeks",52 ± 5 s
same,improving effect on motor coordination (in words),"[2]; cerebellar ataxia hamsters, agents of Example 1 compared among pentamethine cyanine dye compounds",particularly high improving effect on motor coordination
same,Delayed days until the onset of cerebellar ataxia in hamster,"[2]; from rotarod falling time vs test group 1, 20 μg/kg body weight, 5-Weeks",0 days
same,Time of falling from rotarod,[2],88.4 ± 3.2 s
CCCCCCCN1C=CC(=CC=C(C=Cc2cc[n+](CCCCCCC)c3ccccc23)c2cc[n+](CCCCCCC)c3ccccc23)c2ccccc21.[I-].[I-] [NK-28],Object discrimination index,[1],0.2
same,Action on neurite outgrowth (%),PC12-HS cells; [3],38 ± 1%
same,Action on neurite outgrowth (%),PC12-HS cells; [4],64 ± 10%
same,Action on neurite outgrowth (%),PC12-HS cells; [5],70 ± 11%
same,Action on neurite outgrowth (%),PC12-HS cells; [6],46 ± 20%
same,Time of falling from rotarod,[2],69.0 ± 28 s
CCCN1C=CC(=CC=C(C=Cc2cc[n+](CCC)c3ccccc23)c2cc[n+](CCC)c3ccccc23)c2ccccc21.[I-].[I-] [NK-234],Action on neurite outgrowth (%),PC12-HS cells; [3],24 ± 7%
same,Action on neurite outgrowth (%),PC12-HS cells; [4],57 ± 7%
same,Action on neurite outgrowth (%),PC12-HS cells; [5],61 ± 3%
same,Action on neurite outgrowth (%),PC12-HS cells; [6],66 ± 20%
